Read-outs that look alike come from different tables or passages of the source.
Experiments:
THP-1 microsomal ACAT [1] = molecular target: T1, THP-1 microsomal ACAT (Homo sapiens, UniProt P35610); experiment: In vitro test using THP-1 microsome (ACAT inhibition); format: biochemical
T1 construct: ACAT enzyme fraction was prepared from microsome of human leukemia THP-1 cell; endogenous in cells; host or cells: THP-1 (human leukemia), microsomes
T1 sequence (P35610 1-550): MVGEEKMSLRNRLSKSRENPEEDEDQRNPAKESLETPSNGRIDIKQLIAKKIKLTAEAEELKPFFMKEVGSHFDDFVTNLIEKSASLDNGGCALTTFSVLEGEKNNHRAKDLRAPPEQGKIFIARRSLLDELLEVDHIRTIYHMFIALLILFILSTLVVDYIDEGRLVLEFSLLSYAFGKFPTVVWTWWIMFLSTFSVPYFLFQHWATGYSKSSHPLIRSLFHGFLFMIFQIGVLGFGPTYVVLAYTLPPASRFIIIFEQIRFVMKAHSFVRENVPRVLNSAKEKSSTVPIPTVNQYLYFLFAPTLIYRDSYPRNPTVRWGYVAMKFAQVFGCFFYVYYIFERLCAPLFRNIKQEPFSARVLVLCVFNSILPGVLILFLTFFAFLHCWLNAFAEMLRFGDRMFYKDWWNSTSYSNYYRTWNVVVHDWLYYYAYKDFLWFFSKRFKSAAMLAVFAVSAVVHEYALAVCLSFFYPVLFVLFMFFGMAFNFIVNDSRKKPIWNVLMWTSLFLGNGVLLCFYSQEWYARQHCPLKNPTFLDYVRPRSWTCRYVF
Procedure: (4) In Vitro Test Using THP-1 Microsome
Then, the reaction was initiated by the addition of 5 nmoles of labeled [^14 C] oleoyl-CoA dissolved in 20 μl of said phosphate buffer solution containing BSA and the reaction was stopped by the addition of 20 μl of 2N HCl after 10 minutes. [^14 C] cholesterol-oleate formed was separated by thin-layer chromatography and the radioactivity was counted with liquid scintillation counter.
ACAT inhibitory activities of the test compounds were shown as IC50 values.

THP-1 microsomal ACAT [2] = molecular target: T1, THP-1 microsomal ACAT; experiment: Bioavailability assessment of ACAT inhibitors by their ex vivo activity (serum of dosed mice on THP-1 microsomal ACAT); format: in vivo
Procedure: (5) Bioavailability Assessment of ACAT Inhibitors by Their <<ex vivo>> Activity
[…] Blood samples were collected 0.5, 1, 1.5, 2, 6 hour postdose. Serum were harvested after gentle centrifugation and stored at -20.
The following day, 10 μl serum were preincubated at 37 for 5 minutes with 20 μl of THP-1 microsomal ACAT and then incubated 10 minutes with 20 μl of radiolabeled oleoyl-CoA as described above in method (4). The serum is used instead of the drug solution.
ACAT inhibitory activities of the test compounds were shown as maximum inhibition percentages (Imax).

[3] = female mice, 30 mg/kg per os, 1% CMC-Na 0.2% Tween 80, maximum inhibition by serum
[4] = THP-1 microsome, read-out: IC50 THP1 microsome
[5] = tested at 100 mg/kg in a suspension of 0.5% CMC-Na (footnote *)

SMILES	IC50 (THP-1 microsomal ACAT [1])	Imax Ex vivo (THP-1 microsomal ACAT [2]; [3])	IC50 (THP-1 microsomal ACAT [1]; [4])	Imax Ex vivo (THP-1 microsomal ACAT [2]; [5])
CCCCNC(=O)Nc1ccc(OC(=O)NCCCC)cc1C(=O)NCC1CCN(C(c2ccccc2)c2ccccc2)CC1 [77 (b), 5-n-butylcarbamyloxy-2-(N'-n-butylureido)-N-[(1-diphenylmethylpiperidin-4-yl)methyl]benzamide]	0.05 µM	41.37%		
CCCCNC(=O)Nc1ccc([S+](C)[O-])cc1C(=O)NCC1CCN(C(c2ccccc2)c2ccccc2)CC1 (stereo not shown) [111 (a)]		62.01%	0.1 µM	
CCCCNC(=O)Nc1ccc(N(CC)CC)cc1C(=O)NCC1CCN(C(c2ccccc2)c2ccccc2)CC1 [Example 62, 2-(N'-n-Butylureido)-5-diethylamino-N-[(1-diphenylmethylpiperidin-4-yl)-methyl]-benzamide]		62.57%	0.03 µM	
CCCCNC(=O)Nc1ccc(-n2ccnc2)cc1C(=O)NCC1CCN(C(c2ccccc2)c2ccccc2)CC1 [Example 64, 2-(N'-n-Butylureido)-5-(imidazol-1-yl)-N-[(1-diphenylmethylpiperidin-4-yl)-methyl]-benzamide]		43.14%	0.2 µM	
CCCCNC(=O)Nc1ccc(N2CCCC2)cc1C(=O)NCC1CCN(C(c2ccccc2)c2ccccc2)CC1 [Example 65, 2-(N'-n-Butylureido)-5-(pyrrolidin-1-yl)-N-[(1-diphenylmethylpiperidin-4-yl)methyl]-benzamide]		37.43%	0.06 µM	
CCCCNC(=O)Nc1ccc(OC)cc1C(=O)NCC1CCN(C(c2ccccc2)c2ccccc2)CC1 [Example 67, 2-(N'-Butylureido)-5-methoxy-N-[(1-diphenylmethylpiperidin-4-yl)methyl]-benzamide]		51.97%	0.05 µM	
CCCCNC(=O)Nc1ccc(OCC)cc1C(=O)NCC1CCN(C(c2ccccc2)c2ccccc2)CC1 [Example 68, 2-(N'-n-Butylureido)-5-ethoxy-N-[(1-diphenylmethylpiperidin-4-yl)methyl]-benzamide]		50.51%	0.03 µM	
CCCCNC(=O)Nc1ccc(OCC2CC2)cc1C(=O)NCC1CCN(C(c2ccccc2)c2ccccc2)CC1 [Example 69, 2-(N'-n-Butylureido)-5-cyclopropylmethoxy-N-[(1-diphenylmethylpiperidin-4-yl)methyl]-benzamide]		40.11%	0.03 µM	
CCCCNC(=O)Nc1ccc(SC)cc1C(=O)NCC1CCN(C(c2ccccc2)c2ccccc2)CC1 [Example 73]		38.17%	0.02 µM	
CCCCCCCNC(=O)Nc1ccc(-n2ccnc2)cc1C(=O)NCC1CCN(C(c2ccccc2)c2ccccc2)CC1 [Example 79, 2(N'-n-Heptylureido)-5-(imidazol-1-yl)-N-[(1-diphenylmethylpiperidin-4-yl)methyl]-benzamide]			0.22 µM	63.26%
CCCCCCCCCCNC(=O)Nc1ccc(N(C)C)cc1C(=O)NCC1CCN(C(c2ccccc2)c2ccccc2)CC1 [Example 80, 2-(N'-n-Decylureido)-5-dimethylamino-N-[(1-diphenylmethylpiperidin-4-yl)methyl]-benzamide]			0.17 µM	
CCCCCCCNC(=O)Nc1ccc(OC)cc1C(=O)NCC1CCN(C(c2ccccc2)c2ccccc2)CC1 [Example 81, 2-(N'-n-Heptylureido)-5-methoxy-N-[(1-diphenylmethylpiperidin-4-yl)methyl]benzamide]			0.04 µM	74.11%
CCCCCCCNC(=O)Nc1ccc(N2CCOCC2)cc1C(=O)NCC1CCN(C(c2ccccc2)c2ccccc2)CC1 [Example 82, 2-(N'-n-Heptylureido)-5-(morpholin-4-yl)-N-[(1-diphenylmethylpiperidin-4-yl)methyl]-benzamide]		50.15%	0.1 µM	
CCCCCCCNC(=O)Nc1ccc(N2CCCCC2)cc1C(=O)NCC1CCN(C(c2ccccc2)c2ccccc2)CC1 [Example 83, 2-(N'-n-Heptylureido)-5-(piperidin-1-yl)-N-[(1-diphenylmethylpiperidin-4-yl)methyl]benzamide]			0.27 µM	
CCCCCCCNC(=O)Nc1ccc(-n2cccn2)cc1C(=O)NCC1CCN(C(c2ccccc2)c2ccccc2)CC1 [Example 84, 2-(N'-n-Heptylureido)-5-(pyrazol-1-yl)-N-[(1-diphenylmethylpiperidin-4-yl)-methyl]-benzamide]		5.75%	0.1 µM	
CCCCCCCNC(=O)Nc1ccc(N2CCCC2)cc1C(=O)NCC1CCN(C(c2ccccc2)c2ccccc2)CC1 [Example 85, 2-(N'-n-Heptylureido)-5-(pyrrolidin-1-yl)-N-[(1-diphenylmethylpiperidin-4-yl)methyl]-benzamide]		11.33%	0.06 µM	
CCCCCCCNC(=O)Nc1ccc(OCC)cc1C(=O)NCC1CCN(C(c2ccccc2)c2ccccc2)CC1 [Example 86, 5-Ethoxy-2-(N'-n-heptylureido)-N-[(1-diphenylmethylpiperidin-4-yl)methyl]-benzamide]			0.04 µM	
CCCCCCCNC(=O)Nc1ccc(N(CC)CC)cc1C(=O)NCC1CCN(C(c2ccccc2)c2ccccc2)CC1 [Example 87, 5-Diethylamino-2-(N'-n-heptylureido)-N-[(1-diphenylmethylpiperidin-4-yl)-methyl]-benzamide]			0.2 µM	
CCCCCCCNC(=O)Nc1ccc(N(C)C)cc1C(=O)NCC1CCCN(C(c2ccccc2)c2ccccc2)C1 (stereo not shown) [Example 89, 2-(N'-n-Heptylureido)-5-dimethylamino-N-[(1-diphenylmethylpiperidin-3-yl)methyl]-benzamide]			0.06 µM	
CCCCCCCNC(=O)Nc1ccc(N(C)C(C)=O)cc1C(=O)NCC1CCN(C(c2ccccc2)c2ccccc2)CC1 [Example 91, 5-(N-Acetyl-N-methyl)amino-2-(N'-n-heptylureido)-N-[(1-diphenylmethylpiperidin-4-yl)-methyl]benzamide]		61.47%	0.08 µM	
CCCCCCCNC(=O)Nc1ccc(N(C)C)cc1C(=O)NCC1CCN(C(c2ccc(Cl)cc2)c2ccc(Cl)cc2)CC1 [Example 92, 2-(N'-n-Heptylureido)-5-dimethylamino-N-[[1-bis(4-chlorophenyl)methylpiperidin-4-yl]-methyl]benzamide]			0.3 µM	
CCCCCCCNC(=O)Nc1ccc(N(C)C)cc1C(=O)NCC1CCN(C(c2ccc(F)cc2)c2ccc(F)cc2)CC1 [Example 93, 2-(N'-n-Heptylureido)-5-dimethylamino-N-[[1-bis(4-fluorophenyl)methylpiperidin-4-yl]-methyl]benzamide]		24.17%	0.04 µM	
CCCCCCCNC(=O)Nc1ccc(N(C)C)cc1C(=O)NCC1CCN(C(c2ccc(OC)cc2)c2ccc(OC)cc2)CC1 [Example 94, 2-(N'-n-Heptylureido)-5-dimethylamino-N-[[1-bis(4-methoxyphenyl)methylpiperidin-4yl]methyl]benzamide]		28.35%	0.1 µM	
COCCCNC(=O)Nc1ccc(N(C)C)cc1C(=O)NCC1CCN(C(c2ccccc2)c2ccccc2)CC1 [Example 103, 2-(N'-3-Methoxypropylureido)-5dimethylamino-N-[(1-diphenylmethylpiperidin-4-yl)methyl]benzamide]			0.09 µM	
COCCCNC(=O)Nc1ccc(N2CCOCC2)cc1C(=O)NCC1CCN(C(c2ccccc2)c2ccccc2)CC1 [Example 104, 2-(N'-3-Methoxypropylureido)-5-(morpholin-4-yl)-N-[(1-diphenylmethylpiperidin-4-yl)methyl]benzamide]			0.1 µM	
O=C(NCC1CC1)Nc1ccc(N2CCOCC2)cc1C(=O)NCC1CCN(C(c2ccccc2)c2ccccc2)CC1 [Example 105, 2-(N'-Cyclopropylmethylureido)-5-(morpholin-4-yl)-N-[(1-diphenylmethylpiperidin-4-yl)methyl]benzamide]			0.1 µM	
CCCCCCCNC(=O)Nc1ccc(C(C)C)cc1C(=O)NCC1CCN(C(c2ccccc2)c2ccccc2)CC1 [Example 106, 2-(N'-n-Heptylureido)-5-isopropyl-N-[(1-diphenylmethylpiperidin-4-yl)methyl]benzamide]			0.22 µM	
CCCCNC(=O)Nc1ccc(N)cc1C(=O)NCC1CCN(C(c2ccccc2)c2ccccc2)CC1 [Example 109, 5-Amino-2-(N'-n-butylureido)-N-[(1-diphenylmethylpiperidin-4-yl)methyl]-benzamide]			0.4 µM	
CCCCNC(=O)Nc1ccc(NC)cc1C(=O)NCC1CCN(C(c2ccccc2)c2ccccc2)CC1 [Example 112, 5-Methylamino-2-(N'-n-butylureido)-N-[(1-diphenylmethylpiperidin-4-yl)methyl]benzamide]			0.2 µM	
